Results on seven compounds are retold here after patent US7041787B2, “Design and use of advanced zinc chelating peptides to regulate matrix metalloproteinases” (Kimberly-Clark Worldwide, Inc., priority 2000, dated 2006).

*1 amine or outer side, *2 acyl side, *3 side chain or, on linkers, in order; H or OH if unused. Where a SMILES comes first, the peptide text is derived from it. [ ]: non-standard residue; d: D form. The star is where a group is joined. X2 = O=C(O)CN(CC(=O)O)CC(=O)NC(=O)C[C@H](N[*:1])C(=O)[*:2]; X3 = O=C(O)CN(CC(=O)O)CC(C(=O)NCCS*)N(CC(=O)O)CC(=O)O; X1 = O=C(O)CN(CC(=O)O)c1cc(F)ccc1OCC(=O)*

The subject of data set [1] is Epiderm skin model. The data set is described as follows: Epiderm skin equivalent viability (MTT) assay. The data set is classed as cell-based. To be noted: 10 mM peptide in PBS, 12 hours; differences not significant. The method, then:
The relative toxicity of the chelating and substrate peptides was assayed using the skin model Epiderm that is commercially available from MatTek Corp. The individual skin sample containers were preincubated in culture medium at 37° C. under 5% CO2 for two hours prior to the addition of the peptide constructs. The sample containers were transferred to 6 well plates that contained fresh media. All peptides were dissolved in PBS at a final concentration of 10 mM, and 100 μL of each peptide solution was pipetted onto the surface of the Epiderm sample container. Incubation was continued for 12 hours at 37° C. under 5% CO2. After the incubation period, the sample containers were washed three times with PBS and the sample containers were transferred to a 24 well plate that contained 300 μL of MTT assay media per well (MTT concentration was 1 mg/mL). The colorimetric assay was allowed to develop for three hours (incubation at 37° C. under 5% CO2). Sample containers were then transferred to a 24 well culture plate that contained 2 mL of isopropanol per well. […] Absorbance readings were taken at 570 nm and 650 nm for each sample. The percent viability of each sample relative to a PBS control was calculated as: 100×(OD570^sam−OD650^sam)/(OD570^con−OD650^con) (5) Routinely, each peptide sample was assayed in duplicate or triplicate. […]

Data set [2] addresses T1, MMP-9 (Homo sapiens, UniProt P14780).
T1 construct: Active MMP-9 enzyme was purchased from Calbiochem; purchased Calbiochem
The data set is described as follows: Enzymatic hydrolysis of fluoresceinated collagen by MMP-9 (fluorescein release assay). The data set is classed as biochemical. To be noted: MMP-9:ChePep-1 molar stoichiometries 1:0 to 1:1, FIG. 1. Here is the method:
Two enzymatic assays were performed. The first assay measured the enzymatic hydrolysis of fluoresceinated collagen by MMP-9 as a function of time. Fluoresceinated collagen (Molecular Probes, Inc.), at a concentration of 5 μM was added to reaction buffer (50 mM Tris-HCl (pH 7.6), 150 mM NaCl, 5 mM CaCl2, 0.1 mM NaN3) and was placed into a Spectrosil quartz fluorometer cuvette. MMP at a concentration of 0.1 μM was mixed with varying amounts of chelating peptide having SEQ ID No. 4 or 6 and incubated at 25° C. for 10 minutes to effect binding. The protein mixture was added to the collagen substrate and mixed quickly. Fluorescence emission intensity at 520 nm was measured as a function of time (excitation wavelength 495 nm) in a Shimadzu RF5301 fluorometer. The fluorescein release assay was used to determine the inhibitory constant (Ki) of the chelating peptide inhibitor ([I]) according to Segel (1993) via the use of Dixon plots (1/v vs. [I]), such that: slope=Km/(VmaxKi[S]) (1) where Km is the Michaelis constant, Vmax is the reaction maximum velocity, and [S] is the substrate concentration.

The target in data set [3] is T1, MMP-9. The data set is described as follows: FRET substrate peptide cleavage assay with MMP-9. The class given is biochemical. To be noted: for Regulation of MMP-9 in FRET assay (in words): ChePep:MMP-9 molar stoichiometries 0.1:1 to 0.3:1, FIGS. 2-5; for Regulation of MMP-9 compared with other ChePeps (in words): FRET assay, comparison of molar stoichiometries. Here is the method:
The second assay utilized the technique of fluorescence resonance energy transfer (FRET). The substrate peptide (Calbiochem #444221) comprised seven amino acids, coupled to a carboxyl terminal dinitrophenyl acceptor, and an amino terminal 2-aminobenzo-anthraniloyl (Abz) moiety donor. Cleavage of this substrate by MMP-9 results in the liberation of a fluorescent product (365 nm excitation, 450 nm emission). […] MMP at a concentration of 0.1 μM was mixed with varying amounts of chelating peptide (0, 0.01, 0.02, 0.04, and 0.1 μM) and incubated at 25° C. for 10 minutes to effect binding. The protein mixture was added to the peptide substrate and mixed quickly. Fluorescence intensity as a function of time was measured with a Dynex MFX fluorescence microtiter plate reader. Fluorescence intensity was related back to moles of peptide cleaved by producing a standard curve with an Abz containing non-FRET peptide. Inhibitory constants were derived from the curves and are listed below in Table 2.

The target in data set [4] is T1, MMP-9. The data set is described as follows: Surface plasmon resonance (BiaCore) binding of chelating peptide to immobilized MMP-9. To be noted: FIG. 6. The method, then: The BiaCore-X surface plasmon resonance (SPR) device was utilized to measure the interaction between the chelating peptide (CP) and MMP-9. For these experiments a carboxymethyl dextran sensor chip (BiaCore, AB; CM-5, Lofas et al., 1993) was activated with 50 mM N-hydroxysuccinimide, 0.2 M N-ethyl-N′-(dimethylaminopropyl)-carbodiimide at a flow rate of 10 μL per minute for ten minutes. MMP-9 at a concentration of 75 ng/μL was coupled to the activated surface at a flow rate of 10 μL per minute for ten minutes. The final surface was inactivated by flowing 1 M ethanolamine HCl at a rate of 10 μL per minute for five minutes over the sensor surface. CP was flowed over the sensor surface at a rate of 20 μL per minute, and at concentrations of 10, 25, and 50 nM. Binding isotherms were evaluated by simultaneously fitting the forward (ka) and reverse (kd) rate constants to the following formula: d[CP˜MMP-9]/dt=(ka[CP][MMP-9])−(kd[CP˜MMP-9]) (2) (Karlsson and Falt, 1997) where [CP], [MMP-9], and [CP˜MMP-9] are the concentrations of free chelating peptide, free MMP-9, and the complex respectively. […]
A general note: SPR reads the build-up and loss of mass on a sensor chip optically.

T1 sequence (P14780 107-707 limits assumed): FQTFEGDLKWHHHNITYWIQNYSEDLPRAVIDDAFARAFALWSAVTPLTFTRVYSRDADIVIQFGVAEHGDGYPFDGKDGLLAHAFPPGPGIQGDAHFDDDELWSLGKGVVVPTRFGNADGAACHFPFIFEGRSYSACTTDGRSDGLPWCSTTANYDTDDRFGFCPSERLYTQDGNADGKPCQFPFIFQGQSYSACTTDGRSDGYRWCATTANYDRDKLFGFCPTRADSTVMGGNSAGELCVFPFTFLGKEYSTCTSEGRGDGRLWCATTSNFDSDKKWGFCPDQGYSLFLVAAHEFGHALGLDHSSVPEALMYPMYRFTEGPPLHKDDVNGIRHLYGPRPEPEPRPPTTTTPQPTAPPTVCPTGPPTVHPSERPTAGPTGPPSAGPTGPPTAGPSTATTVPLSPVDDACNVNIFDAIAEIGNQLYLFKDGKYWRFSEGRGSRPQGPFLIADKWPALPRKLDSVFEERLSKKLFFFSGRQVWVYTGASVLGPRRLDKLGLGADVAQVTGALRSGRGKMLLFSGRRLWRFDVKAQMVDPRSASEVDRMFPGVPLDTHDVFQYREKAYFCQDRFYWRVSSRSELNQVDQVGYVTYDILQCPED

With “2-amino-4-fluorophenol N,N,O triacetic acid [AFTA]”, the “Percent viability relative to PBS control, by zinc chelator of the construct” value in data set [1] is listed as 90.5%.
On to `CC(C)[C@H](NC(=O)[C@@H]1CCCN1C(=O)[C@@H](NC(=O)[C@H](C)NC(=O)[C@H](CO)NC(=O)[C@@H](N)CSSCCNC(=O)C(CN(CC(=O)O)CC(=O)O)N(CC(=O)O)CC(=O)O)C(C)C)C(=O)N[C@@H](Cc1c[nH]cn1)C(=O)O` (some centres unmarked) [ChePep-1] (H-C(X3)SAVPVH-OH), for which, in data set [2], the “Regulation of MMP-9 hydrolysis of fluoresceinated collagen (in words)” value is “prevents the enzyme from degrading fluoresceinated collagen in a dose dependent manner”.
`CC(C)[C@H](NC(=O)[C@@H]1CCCN1C(=O)[C@@H](NC(=O)[C@H](C)NC(=O)[C@H](CO)NC(=O)[C@@H](N)CC(=O)NC(=O)CN(CC(=O)O)CC(=O)O)C(C)C)C(=O)N[C@@H](Cc1c[nH]cn1)C(N)=O` [ChePep-2] (H-[X2]SAVPVH-NH2): in data set [3], the “Regulation of MMP-9 in FRET assay (in words)” value is “dose dependent manner” and the “Regulation of MMP-9 compared with other ChePeps (in words)” value is recorded as “significantly more effective in regulating MMP-9 than was ChepPep-1”.
Regarding `CC[C@H](C)[C@H](N)C(=O)N[C@@H](Cc1ccc(O)cc1)C(=O)N[C@H](C(=O)N[C@@H](C)C(=O)N[C@@H](CSSCCNC(=O)C(CN(CC(=O)O)CC(=O)O)N(CC(=O)O)CC(=O)O)C(=O)N[C@@H](CCSC)C(=O)N[C@@H](CO)C(=O)N[C@@H](C)C(=O)N[C@H](C(N)=O)C(C)C)[C@@H](C)O` (some centres unmarked) [ChePep-3] (H-IYTAC(X3)MSAV-NH2; N-terminus assumed), the “Regulation of MMP-9 compared with other ChePeps (in words)” value in data set [3] is “nearly identical ability to regulate MMP-9”.
Same read-out and setting: under `CC[C@H](C)[C@H](N)C(=O)N[C@@H](Cc1ccc(O)cc1)C(=O)N[C@H](C(=O)N[C@@H](C)C(=O)N[C@@H](CC(=O)NC(=O)CN(CC(=O)O)CC(=O)O)C(=O)N[C@@H](CCSC)C(=O)N[C@@H](CO)C(=O)N[C@@H](C)C(=O)N[C@H](C(N)=O)C(C)C)[C@@H](C)O` [ChePep-4] (H-IYTA[X2]MSAV-NH2; N-terminus and C-terminus assumed) stands “nearly identical ability to regulate MMP-9”.
Consider `CC(C)C(NC(=O)C(CS)NC(=O)C(NC(=O)C(CS)NC(=O)COc1ccc(F)cc1N(CC(=O)O)CC(=O)O)C(C)O)C(=O)N1CCCC1C(=O)O` (centres unmarked) [ChePep-6] (X1-CTCVP-OH; configuration not given here), for which, in data set [3], the “Regulation of MMP-9 in FRET assay (in words)” value was “effective MMP-9 regulator at low molar stoichiometries” and the “Regulation of MMP-9 compared with other ChePeps (in words)” value is on record as “most potent regulator of all the ChePeps”. In addition, in data set [4] (400 second association phase, 20 μL per minute), the “SPR association / affinity for immobilized MMP-9 (in words)” value was “binds quickly and with high affinity”. For the same compound, the “SPR dissociation from immobilized MMP-9 (in words)” value in data set [4] (800 second dissociation phase) is “does not dissociate”.
For the compound “pyridine disulfide ethylenediaminetetraacetic acid [PSDE]”, in data set [1], the “Percent viability relative to PBS control, by zinc chelator of the construct” value was 96.5%.
